Assay results from paper PMC8330190 (Signal Transduction and Targeted Therapy, 2021).

System: SARS-CoV-2 HR1 target mimic peptide HR1P
Assay type: binding

| Structure (SMILES) | Tm of complex with HR1P (binding stability) [°C] |
| --- | --- |
| CC[C@H](C)[C@H](NC(=O)[C@H](Cc1ccc(O)cc1)NC(=O)[C@H](CO)NC(=O)[C@H](CCC(=O)O)NC(=O)[C@H](CC(N)=O)NC(=O)[C@H](CC(C)C)NC(=O)[C@H](C)NC(=O)[C@H](CCCCN)NC(=O)[C@@H](NC(=O)[C@@H](NC(=O)[C@H](CCC(N)=O)NC(=O)[C@H](CCC(N)=O)NC(=O)[C@H](CC(C)C)NC(=O)[C@H](CO)NC(=O)[C@H](CC(C)C)NC(=O)[C@H](CCSC)NC(=O)[C@H](CCC(=O)O)NC(=O)[C@H](Cc1ccc(O)cc1)NC(=O)[C@@H](NC(=O)[C@H](CC(C)C)NC(=O)[C@H](CC(=O)O)NC(=O)[C@H](CC(C)C)NC(=O)[C@H](CC(C)C)NC(=O)[C@@H](NC(=O)[C@@H](NC(=O)[C@H](CC(N)=O)NC(=O)[C@@H](NC(=O)[C@H](CCC(N)=O)NC(=O)[C@@H](NC(=O)[C@H](CC(C)C)NC(=O)[C@H](CO)NC(C)=O)[C@@H](C)O)[C@@H](C)CC)[C@@H](C)O)[C@@H](C)O)[C@@H](C)O)C(C)C)C(C)C)C(=O)N[C@@H](CC(=O)O)C(=O)N[C@@H](CC(C)C)C(=O)N[C@@H](CCCCN)C(=O)N[C@@H](CCC(=O)O)C(=O)N[C@@H](CC(C)C)C(=O)NCCOCCOCCOCCOCCOCCOCCOCCOCCC(=O)N[C@@H](CCCCNC(=O)CCC(=O)O[C@H]1CC[C@@]2(C)C(=CC[C@H]3[C@@H]4CC[C@H]([C@H](C)CCCC(C)C)[C@@]4(C)CC[C@@H]32)C1)C(N)=O [MERS-LP] | 47 |
| CC[C@H](C)[C@H](NC(=O)[C@H](C)NC(=O)[C@H](CCC(=O)O)NC(=O)[C@H](CCC(N)=O)NC(=O)[C@H](CC(C)C)NC(=O)[C@H](CCCNC(=N)N)NC(=O)[C@H](CC(N)=O)NC(=O)[C@H](CCSC)NC(=O)[C@H](CCC(=O)O)NC(=O)[C@H](CC(=O)O)NC(=O)[C@H](CCC(N)=O)NC(=O)[C@H](CC(C)C)NC(=O)[C@H](CC(=O)O)NC(=O)[C@H](CC(C)C)NC(=O)[C@H](Cc1ccccc1)NC(=O)[C@@H](NC(=O)[C@@H](NC(=O)[C@H](CC(N)=O)NC(=O)[C@@H](NC(=O)[C@H](Cc1ccc(O)cc1)NC(=O)[C@H](CC(=O)O)NC(=O)[C@H](CC(C)C)NC(=O)[C@H](CO)NC(C)=O)[C@@H](C)CC)C(C)C)[C@@H](C)O)C(=O)N[C@@H](CCCCN)C(=O)N[C@H](C(=O)N[C@@H](CC(C)C)C(=O)N[C@@H](CC(N)=O)C(=O)N[C@@H](CCC(N)=O)C(=O)N[C@@H](CO)C(=O)N[C@@H](Cc1ccc(O)cc1)C(=O)N[C@H](C(=O)N[C@@H](CC(N)=O)C(=O)N[C@@H](CC(C)C)C(=O)N[C@@H](CCCCN)C(=O)N[C@@H](CC(=O)O)C(=O)N[C@H](C(=O)NCCOCCOCCOCCOCCOCCOCCOCCOCCC(=O)N[C@@H](CCCCNC(=O)CCC(=O)O[C@H]1CC[C@@]2(C)C(=CC[C@H]3[C@@H]4CC[C@H]([C@H](C)CCCC(C)C)[C@@]4(C)CC[C@@H]32)C1)C(N)=O)[C@@H](C)CC)[C@@H](C)CC)C(C)C [OC43-LP] | 63 |
